Experimental data from PubChem BioAssay (NCI).
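Five concentrations, 48 hours, 96-well plates. GI50 marks 50% less growth. TGI marks complete inhibition of growth.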

Experiments:
Assay in all cases: NCI anticancer screen, dose series, 48 h
786-0 renal = tested on: 786-0 renal
UACC-62 melanoma = tested on: UACC-62 melanoma
K-562 leukemia = tested on: K-562 leukemia
NCI/ADR-RES ovarian = tested on: NCI/ADR-RES ovarian
SNB-19 CNS = tested on: SNB-19 CNS
CCRF-CEM leukemia = tested on: CCRF-CEM leukemia
RXF 393 renal = tested on: RXF 393 renal
DU-145 prostate = tested on: DU-145 prostate
IGROV1 ovarian = tested on: IGROV1 ovarian
OVCAR-8 ovarian = tested on: OVCAR-8 ovarian
TK-10 renal = tested on: TK-10 renal
SW-620 colon = tested on: SW-620 colon
A498 renal = tested on: A498 renal
SN12C renal = tested on: SN12C renal
HCT-116 colon = tested on: HCT-116 colon
T-47D breast = tested on: T-47D breast
HL-60(TB) leukemia = tested on: HL-60(TB) leukemia
SK-OV-3 ovarian = tested on: SK-OV-3 ovarian
KM12 colon = tested on: KM12 colon
LOX IMVI melanoma = tested on: LOX IMVI melanoma
HS 578T breast = tested on: HS 578T breast
RPMI-8226 leukemia = tested on: RPMI-8226 leukemia
MDA-MB-435 = tested on: MDA-MB-435
MDA-MB-231 breast = tested on: MDA-MB-231 breast
OVCAR-5 ovarian = tested on: OVCAR-5 ovarian
SNB-75 CNS = tested on: SNB-75 CNS
MCF7 breast = tested on: MCF7 breast
SK-MEL-5 melanoma = tested on: SK-MEL-5 melanoma
SR leukemia = tested on: SR leukemia

Structure (SMILES): Oc1cc(N2CC2)c(O)cc1N1CC1
- GI50 (786-0 renal): 0.742 µM
- TGI (786-0 renal): 4.69 µM
- GI50 (UACC-62 melanoma): 0.918 µM
- TGI (UACC-62 melanoma): 2.91 µM
- GI50 (K-562 leukemia): 1.2 µM
- TGI (K-562 leukemia): 15.4 µM
- GI50 (NCI/ADR-RES ovarian): 0.961 µM
- TGI (NCI/ADR-RES ovarian): 7.55 µM
- GI50 (SNB-19 CNS): 1.78 µM
- TGI (SNB-19 CNS): 13.5 µM
- GI50 (CCRF-CEM leukemia): 0.556 µM
- TGI (CCRF-CEM leukemia): > 45 µM
- GI50 (RXF 393 renal): 0.358 µM
- TGI (RXF 393 renal): 1.21 µM
- GI50 (DU-145 prostate): 0.254 µM
- TGI (DU-145 prostate): 1.37 µM
- GI50 (IGROV1 ovarian): 0.794 µM
- TGI (IGROV1 ovarian): 3.6 µM
- GI50 (OVCAR-8 ovarian): 1.25 µM
- TGI (OVCAR-8 ovarian): 9.44 µM
- GI50 (TK-10 renal): 1.27 µM
- TGI (TK-10 renal): 9.35 µM
- GI50 (SW-620 colon): 0.372 µM
- TGI (SW-620 colon): 7.37 µM
- GI50 (A498 renal): 0.581 µM
- TGI (A498 renal): 2.55 µM
- GI50 (SN12C renal): 0.586 µM
- TGI (SN12C renal): 5.07 µM
- GI50 (HCT-116 colon): 0.615 µM
- TGI (HCT-116 colon): 10.8 µM
- GI50 (T-47D breast): 1.1 µM
- TGI (T-47D breast): 6.48 µM
- GI50 (HL-60(TB) leukemia): 0.238 µM
- TGI (HL-60(TB) leukemia): 2.14 µM
- GI50 (SK-OV-3 ovarian): 1.54 µM
- TGI (SK-OV-3 ovarian): 8.77 µM
- GI50 (KM12 colon): 1.63 µM
- TGI (KM12 colon): 4.44 µM
- GI50 (LOX IMVI melanoma): 0.322 µM
- TGI (LOX IMVI melanoma): 2.42 µM
- GI50 (HS 578T breast): 2.33 µM
- TGI (HS 578T breast): > 22.9 µM
- GI50 (RPMI-8226 leukemia): 1.53 µM
- TGI (RPMI-8226 leukemia): 9.74 µM
- GI50 (MDA-MB-435): 1.37 µM
- TGI (MDA-MB-435): 3.32 µM
- GI50 (MDA-MB-231 breast): 10.3 µM
- TGI (MDA-MB-231 breast): 64.2 µM
- GI50 (OVCAR-5 ovarian): 1.88 µM
- TGI (OVCAR-5 ovarian): 9.93 µM
- GI50 (SNB-75 CNS): 1.14 µM
- TGI (SNB-75 CNS): 2.6 µM
- GI50 (MCF7 breast): 0.387 µM
- TGI (MCF7 breast): 4.21 µM
- GI50 (SK-MEL-5 melanoma): 0.874 µM
- TGI (SK-MEL-5 melanoma): 2.99 µM
- GI50 (SR leukemia): 0.159 µM
- TGI (SR leukemia): 4.03 µM
